Data as given in ChEMBL document CHEMBL3885881, “DrugMatrix”.

Organism: Rattus norvegicus
Assay: DrugMatrix - Regimen: Daily Repeat
Assay type: toxicity, organism-based, Sprague-Dawley
Parameters: regimen Daily Repeat, gender Male, age 6-8 weeks
Settings: in vivo, po, route oral GAVAGE, vehicle .5 % CMC; for ABSOLUTE BASOPHIL / ABSOLUTE EOSINOPHIL / ABSOLUTE LYMPHOCYTE / ABSOLUTE MONOCYTE / ABSOLUTE SEGMENTED NEUTROPHIL / BASOPHIL / EOSINOPHIL / ERYTHROCYTE COUNT / HEMATOCRIT / HEMOGLOBIN / LEUKOCYTE COUNT / LYMPHOCYTE / MEAN CORPUSCULAR HEMOGLOBIN / MEAN CORPUSCULAR HEMOGLOBIN CONCENTRATION / MEAN CORPUSCULAR VOLUME / MONOCYTE / NEUTROPHIL / NUCLEATED RED BLOOD CELLS / PLATELET COUNT: tissue Blood; for ALANINE AMINOTRANSFERASE / ALBUMIN / ALKALINE PHOSPHATASE / ASPARTATE AMINOTRANSFERASE / BLOOD UREA NITROGEN / CARBON DIOXIDE / CHLORIDE / CHOLESTEROL / CREATINE PHOSPHOKINASE / CREATININE / GLUCOSE / LACTATE DEHYDROGENASE / LIPASE / PHOSPHORUS / POTASSIUM / SODIUM / TOTAL BILIRUBIN / TOTAL PROTEIN / URIC ACID: tissue Plasma
[1] = 3 mg/kg, 120 h, dose level Low, time 5 day
[2] = 30 mg/kg, 72 h, dose level High, time 3 day
[3] = 30 mg/kg, 120 h, dose level High, time 5 day

With `CC(=O)Nc1ccc2c(c1)Cc1ccccc1-2` [2-ACETYLAMINOFLUORENE] the “ABSOLUTE BASOPHIL” value [1] was 0 CELLS/uL, the “ABSOLUTE EOSINOPHIL” value [1] was 0 CELLS/uL and the “ABSOLUTE LYMPHOCYTE” value [1] was 14012 CELLS/uL. For the same molecule, the “ABSOLUTE MONOCYTE” value [1] was 174.33 CELLS/uL, the “ABSOLUTE SEGMENTED NEUTROPHIL” value [1] was 1113.67 CELLS/uL and the BASOPHIL [1] was 0%. The EOSINOPHIL [1] was 0%, the “ERYTHROCYTE COUNT” value [1] was 5.69 x10E6/uL and the HEMATOCRIT [1] was 34.77%. For the same molecule, the HEMOGLOBIN [1] was 13.53 G/DL, the “LEUKOCYTE COUNT” value [1] was 15.3 x10E3/uL and the LYMPHOCYTE [1] was 92%. The “MEAN CORPUSCULAR HEMOGLOBIN” value [1] was 23.73 pg, the “MEAN CORPUSCULAR HEMOGLOBIN CONCENTRATION” value [1] was 39 G/DL and the “MEAN CORPUSCULAR VOLUME” value [1] was 61 fL. For the same molecule, the MONOCYTE [1] was 1%, the NEUTROPHIL [1] was 7% and the “NUCLEATED RED BLOOD CELLS” value [1] was 0 /100WBC. For the same molecule, the “PLATELET COUNT” value [1] was 1174.67 x10E3/uL, the “ALANINE AMINOTRANSFERASE” value [1] was 51 u/L and the ALBUMIN [1] was 4.03 G/DL. The “ALKALINE PHOSPHATASE” value [1] was 355 u/L, the “ASPARTATE AMINOTRANSFERASE” value [1] was 106.67 u/L and the “BLOOD UREA NITROGEN” value [1] was 16.67 mg/dL. The “CARBON DIOXIDE” value [1] was 29.67 mmol/L, the CHLORIDE [1] was 98 MEQ/L and the CHOLESTEROL [1] was 70.67 mg/dL. The “CREATINE PHOSPHOKINASE” value [1] was 459.33 u/L, the CREATININE [1] was 0.16 mg/dL and the GLUCOSE [1] was 147 mg/dL. For the same molecule, the “LACTATE DEHYDROGENASE” value [1] was 770.33 u/L, the LIPASE [1] was 9.67 u/L and the PHOSPHORUS [1] was 11.37 mg/dL. For the same molecule, the POTASSIUM [1] was 6.6 MEQ/L, the SODIUM [1] was 139.93 MEQ/L and the “TOTAL BILIRUBIN” value [1] was 0.23 mg/dL. The “TOTAL PROTEIN” value [1] was 5.9 G/DL, the “URIC ACID” value [1] was 1.5 mg/dL and the “ABSOLUTE BASOPHIL” value [2] was 0 CELLS/uL. For the same molecule, the “ABSOLUTE EOSINOPHIL” value [2] was 86 CELLS/uL, the “ABSOLUTE LYMPHOCYTE” value [2] was 12836 CELLS/uL and the “ABSOLUTE MONOCYTE” value [2] was 177.33 CELLS/uL. The “ABSOLUTE SEGMENTED NEUTROPHIL” value [2] was 1034 CELLS/uL, the BASOPHIL [2] was 0% and the EOSINOPHIL [2] was 0.67%. For the same molecule, the “ERYTHROCYTE COUNT” value [2] was 5.86 x10E6/uL, the HEMATOCRIT [2] was 36.83% and the HEMOGLOBIN [2] was 14.6 G/DL. The “LEUKOCYTE COUNT” value [2] was 14.13 x10E3/uL, the LYMPHOCYTE [2] was 90.67% and the “MEAN CORPUSCULAR HEMOGLOBIN” value [2] was 24.9 pg. For the same molecule, the “MEAN CORPUSCULAR HEMOGLOBIN CONCENTRATION” value [2] was 39.6 G/DL, the “MEAN CORPUSCULAR VOLUME” value [2] was 62.87 fL and the MONOCYTE [2] was 1.33%. The NEUTROPHIL [2] was 7.33%, the “NUCLEATED RED BLOOD CELLS” value [2] was 0 /100WBC and the “PLATELET COUNT” value [2] was 1279.33 x10E3/uL. The “ALANINE AMINOTRANSFERASE” value [2] was 53.67 u/L, the ALBUMIN [2] was 3.73 G/DL and the “ALKALINE PHOSPHATASE” value [2] was 368.67 u/L. For the same molecule, the “ASPARTATE AMINOTRANSFERASE” value [2] was 126.33 u/L, the “BLOOD UREA NITROGEN” value [2] was 15 mg/dL and the “CARBON DIOXIDE” value [2] was 22.67 mmol/L. For the same molecule, the CHLORIDE [2] was 102 MEQ/L, the CHOLESTEROL [2] was 53 mg/dL and the “CREATINE PHOSPHOKINASE” value [2] was 1143.67 u/L. For the same molecule, the CREATININE [2] was 0.21 mg/dL, the GLUCOSE [2] was 158.67 mg/dL and the “LACTATE DEHYDROGENASE” value [2] was 858.33 u/L. The LIPASE [2] was 10.33 u/L, the PHOSPHORUS [2] was 10.73 mg/dL and the POTASSIUM [2] was 6.07 MEQ/L. For the same molecule, the SODIUM [2] was 142.33 MEQ/L, the “TOTAL BILIRUBIN” value [2] was 0.2 mg/dL and the “TOTAL PROTEIN” value [2] was 5.3 G/DL. For the same molecule, the “URIC ACID” value [2] was 1.47 mg/dL, the “ABSOLUTE BASOPHIL” value [3] was 0 CELLS/uL and the “ABSOLUTE EOSINOPHIL” value [3] was 0 CELLS/uL. For the same molecule, the “ABSOLUTE LYMPHOCYTE” value [3] was 17906.67 CELLS/uL, the “ABSOLUTE MONOCYTE” value [3] was 125.33 CELLS/uL and the “ABSOLUTE SEGMENTED NEUTROPHIL” value [3] was 368 CELLS/uL. For the same molecule, the BASOPHIL [3] was 0%, the EOSINOPHIL [3] was 0% and the “ERYTHROCYTE COUNT” value [3] was 6.43 x10E6/uL. For the same molecule, the HEMATOCRIT [3] was 39.07%, the HEMOGLOBIN [3] was 15.4 G/DL and the “LEUKOCYTE COUNT” value [3] was 18.4 x10E3/uL. The LYMPHOCYTE [3] was 97.33%, the “MEAN CORPUSCULAR HEMOGLOBIN” value [3] was 24 pg and the “MEAN CORPUSCULAR HEMOGLOBIN CONCENTRATION” value [3] was 39.43 G/DL. The “MEAN CORPUSCULAR VOLUME” value [3] was 60.83 fL, the MONOCYTE [3] was 0.67% and the NEUTROPHIL [3] was 2%. For the same molecule, the “NUCLEATED RED BLOOD CELLS” value [3] was 0 /100WBC, the “PLATELET COUNT” value [3] was 1336 x10E3/uL and the “ALANINE AMINOTRANSFERASE” value [3] was 44 u/L. For the same molecule, the ALBUMIN [3] was 3.8 G/DL, the “ALKALINE PHOSPHATASE” value [3] was 317.33 u/L and the “ASPARTATE AMINOTRANSFERASE” value [3] was 100.33 u/L. For the same molecule, the “BLOOD UREA NITROGEN” value [3] was 20.33 mg/dL, the “CARBON DIOXIDE” value [3] was 27.33 mmol/L and the CHLORIDE [3] was 104.33 MEQ/L. For the same molecule, the CHOLESTEROL [3] was 46.67 mg/dL, the “CREATINE PHOSPHOKINASE” value [3] was 551.33 u/L and the CREATININE [3] was 0.22 mg/dL. For the same molecule, the GLUCOSE [3] was 146.33 mg/dL, the “LACTATE DEHYDROGENASE” value [3] was 501 u/L and the LIPASE [3] was 9.33 u/L. The PHOSPHORUS [3] was 11.33 mg/dL, the POTASSIUM [3] was 6.51 MEQ/L and the SODIUM [3] was 146.97 MEQ/L. The “TOTAL BILIRUBIN” value [3] was 0.17 mg/dL, the “TOTAL PROTEIN” value [3] was 5.4 G/DL and the “URIC ACID” value [3] was 1.93 mg/dL.
